Measured values from ChEMBL document CHEMBL3352279, “Synthesis and Structure-Activity Relationship Study of 5a-Carbasugar Analogues of SL0101” (ACS Med Chem Lett, 2015).
Blank lines part the entries; values can stand above or below the compound they belong to. Calls of active or inactive are those of the source. The rule behind the calls is not given here.

Tests used:
[1] = target: Ribosomal protein S6 kinase alpha-3 (Homo sapiens, UniProt P51812); test: Inhibition of RSK2 (unknown origin) assessed as phosphorylation by Western lightning enhanced chemiluminescent reagent/HRP activity assay
[2] = test system: MCF7; test: Antiproliferative activity against human MCF7 cells at 100 uM after 48 hrs by CellTiterGlo assay; format: functional
[3] = test system: MCF-10A; test: Antiproliferative activity against human MCF10A cells at 100 uM after 48 hrs by CellTiterGlo assay; format: functional, cell-based
[4] = target: Ribosomal protein S6 kinase alpha-1 (Homo sapiens) (UniProt Q15418); test: Inhibition of RSK in PMA-stimulated human MCF7 cells assessed as increase in phosphorylation of eEF2 at 100 uM by immunoblotting analysis; format: cell-based
[5] = test system: MCF7; test: Reduction in cyclin D1 in PMA-stimulated human MCF7 cells at 100 uM by immunoblotting analysis; format: functional, cell-based
[6] = test system: MCF7; test: Increase in phosphorylation motif of protein kinase A in human MCF7 cells at 100 uM by immunoblotting analysis; format: cell-based
[7] = target: Ribosomal protein S6 kinase alpha-1 (Homo sapiens) (UniProt Q15418); test: Inhibition of RSK in PMA-stimulated human MCF7 cells assessed as decrease in intensity of band at 65 and 27 kDa at 100 uM by immunoblotting analysis; format: cell-based
[8] = test system: MCF7; test: Antiproliferative activity against human MCF7 cells at 50 uM after 48 hrs by CellTiterGlo assay; format: functional, cell-based
[9] = target: Ribosomal protein S6 kinase alpha-1 (Homo sapiens) (UniProt Q15418); test: Inhibition of RSK in PMA-stimulated human MCF7 cells assessed as increase in phosphorylation of eEF2 at 50 uM by immunoblotting analysis; format: cell-based
[10] = test system: MCF7; test: Reduction in cyclin D1 in PMA-stimulated human MCF7 cells at 50 uM by immunoblotting analysis; format: functional, cell-based
[11] = test system: MCF7; test: Increase in phosphorylation motif of protein kinase A in human MCF7 cells at 50 uM by immunoblotting analysis; format: cell-based
[12] = target: Protein kinase C (PKC) (Homo sapiens) (UniProt O94806+P41743+P17252+P05129+Q05655+P05771+Q05513+Q02156+P24723+Q15139+Q04759); test: Effect on phosphorylation motif of protein kinase C in human MCF7 cells at 50 uM by immunoblotting analysis; format: cell-based
[13] = test system: MCF7; test: Effect on phosphorylation motif of tyrosine kinase in human MCF7 cells at 50 uM by immunoblotting analysis; format: cell-based
[14] = test system: MCF-10A; test: Antiproliferative activity against human MCF10A cells at 50 uM after 48 hrs by CellTiterGlo assay; format: functional, cell-based
[15] = target: Ribosomal protein S6 kinase alpha-1 (Homo sapiens) (UniProt Q15418); test: Inhibition of RSK in PMA-stimulated human MCF7 cells assessed as decrease in intensity of band at 65 and 27 kDa at 50 uM by immunoblotting analysis; format: cell-based
[16] = test system: MCF7; test: Antiproliferative activity against human MCF7 cells at 25 uM after 48 hrs by CellTiterGlo assay; format: functional; conditions: MCF7, 48 h
[17] = test system: MCF-10A; test: Antiproliferative activity against human MCF10A cells at 25 uM after 48 hrs by CellTiterGlo assay; format: functional, cell-based

Sequence of Ribosomal protein S6 kinase alpha-1 (Homo sapiens) (Q15418 whole entry): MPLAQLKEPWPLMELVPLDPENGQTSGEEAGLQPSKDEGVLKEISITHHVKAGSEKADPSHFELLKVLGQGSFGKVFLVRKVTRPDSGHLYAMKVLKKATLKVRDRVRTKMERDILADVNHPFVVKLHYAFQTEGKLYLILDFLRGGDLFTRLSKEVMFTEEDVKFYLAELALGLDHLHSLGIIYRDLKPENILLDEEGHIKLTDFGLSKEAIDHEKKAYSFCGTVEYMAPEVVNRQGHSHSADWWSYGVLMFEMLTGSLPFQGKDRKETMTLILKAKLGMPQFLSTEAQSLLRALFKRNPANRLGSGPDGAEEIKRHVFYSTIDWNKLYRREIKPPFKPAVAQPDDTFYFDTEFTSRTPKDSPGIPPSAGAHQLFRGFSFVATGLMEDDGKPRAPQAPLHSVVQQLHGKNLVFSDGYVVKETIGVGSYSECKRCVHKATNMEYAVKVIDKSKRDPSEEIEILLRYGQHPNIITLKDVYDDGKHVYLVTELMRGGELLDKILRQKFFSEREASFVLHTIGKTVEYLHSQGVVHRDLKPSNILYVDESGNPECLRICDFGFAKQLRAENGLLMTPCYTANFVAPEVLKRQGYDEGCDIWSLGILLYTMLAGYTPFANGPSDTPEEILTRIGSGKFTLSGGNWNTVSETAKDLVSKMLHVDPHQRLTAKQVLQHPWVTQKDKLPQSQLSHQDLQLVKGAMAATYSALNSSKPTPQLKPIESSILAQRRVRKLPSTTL
Sequence of Ribosomal protein S6 kinase alpha-3 (P51812 whole entry): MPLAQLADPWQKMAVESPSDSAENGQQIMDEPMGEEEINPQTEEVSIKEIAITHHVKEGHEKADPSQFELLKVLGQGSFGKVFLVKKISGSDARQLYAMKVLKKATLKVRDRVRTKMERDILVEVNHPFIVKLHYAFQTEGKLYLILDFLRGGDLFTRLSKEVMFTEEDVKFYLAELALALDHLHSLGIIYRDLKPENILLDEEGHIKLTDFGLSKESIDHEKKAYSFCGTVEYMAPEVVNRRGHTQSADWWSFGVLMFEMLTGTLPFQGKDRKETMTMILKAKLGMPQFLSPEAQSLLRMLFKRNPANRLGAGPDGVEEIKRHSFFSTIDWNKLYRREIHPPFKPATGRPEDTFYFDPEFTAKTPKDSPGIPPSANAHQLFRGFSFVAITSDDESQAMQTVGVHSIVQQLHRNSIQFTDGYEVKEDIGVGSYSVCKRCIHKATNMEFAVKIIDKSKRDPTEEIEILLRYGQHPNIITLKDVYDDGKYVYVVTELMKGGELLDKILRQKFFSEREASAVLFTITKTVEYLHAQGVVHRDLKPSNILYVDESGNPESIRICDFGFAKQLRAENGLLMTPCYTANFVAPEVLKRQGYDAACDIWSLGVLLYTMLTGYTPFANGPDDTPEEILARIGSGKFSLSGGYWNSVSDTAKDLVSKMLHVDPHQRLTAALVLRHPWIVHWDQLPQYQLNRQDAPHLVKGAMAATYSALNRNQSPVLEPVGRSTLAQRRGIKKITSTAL

IC50 [1]: Not Active
Compound: CC(=O)O[C@H]1[C@H](O)[C@H](O)[C@@H](Oc2c(-c3ccc(O)cc3)oc3cc(O)cc(O)c3c2=O)C[C@@H]1C
inhibition [2]: inactive
inhibition [3]: inactive

Activity [4]: Active
inhibition [7]: Active
Compound: CC(=O)O[C@@H]1[C@@H](OC(C)=O)[C@@H](O)[C@H](Oc2c(-c3ccc(O)cc3)oc3cc(O)cc(O)c3c2=O)O[C@H]1C
inhibition at 100 µM ([2]; MCF7, 48 h): 60%
inhibition [5]: Active
Activity [6]: Active

IC50 ([1]; read-out: IC50): 8930 nM
Compound: CC(=O)O[C@H]1[C@@H](O)[C@H](Oc2c(-c3ccc(O)cc3)oc3cc(O)cc(O)c3c2=O)CC[C@@H]1OC(C)=O

IC50 ([1]; read-out: IC50): 1600 nM
Activity [9]: Active
Activity [12]: inactive
inhibition [15]: inactive
Compound: CC(=O)O[C@@H]1[C@@H](O)[C@@H](OC(C)=O)[C@H](Oc2c(-c3ccc(O)cc3)oc3cc(O)cc(O)c3c2=O)C[C@H]1C
inhibition [8]: Active
Activity [10]: inactive
Activity [11]: inactive
Activity [13]: inactive
inhibition [14]: Active

IC50 [1]: Not Active
Compound: CC(=O)O[C@@H]1[C@H](O)[C@@H](Oc2c(-c3ccc(O)cc3)oc3cc(O)cc(O)c3c2=O)C[C@H](C)[C@H]1OC(C)=O

IC50 ([1]; read-out: IC50): 1230 nM
Compound: CC(=O)O[C@@H]1[C@@H](O)[C@@H](O)[C@H](Oc2c(-c3ccc(O)cc3)oc3cc(O)cc(O)c3c2=O)C[C@H]1C
inhibition [2]: Active
inhibition [3]: Active

IC50 [1]: Not Active
Compound: CC(=O)O[C@@H]1[C@H](O)[C@@H](Oc2c(-c3ccc(O)cc3)oc3cc(O)cc(O)c3c2=O)CC[C@H]1OC(C)=O

IC50 ([1]; read-out: IC50): 270 nM
Activity [9]: Active
Activity [12]: inactive
inhibition [15]: inactive
Compound: CC(=O)O[C@@H]1[C@@H](OC(C)=O)[C@@H](O)[C@H](Oc2c(-c3ccc(O)cc3)oc3cc(O)cc(O)c3c2=O)C[C@H]1C
inhibition at 25 µM [16]: 60%
inhibition [17]: Active
inhibition [8]: Active
Activity [10]: inactive
Activity [11]: inactive
Activity [13]: inactive
inhibition [14]: Active

IC50 [1]: Not Active
Compound: CC(=O)O[C@H]1[C@@H](O)[C@H](OC(C)=O)[C@@H](C)C[C@@H]1Oc1c(-c2ccc(O)cc2)oc2cc(O)cc(O)c2c1=O
